Test results from paper PMC11966747, “Next Generation Risk Assessment of Acute Neurotoxicity from Organophosphate Exposures Using the In Vitro–In Silico Derived Dietary Comparator Ratio” (Environmental Science & Technology, 2025).
Where two headings read alike, the source gives them in different places.

Key:
[1] = QSAR-based prediction; ref Punt et al. 2022; Moerenhout et al. 2024; cited from earlier work
erythrocyte AChE [2] = molecular target: T1, erythrocyte AChE (Homo sapiens, UniProt P22303); assay: Exposure Activity Ratio (EAR) and Dietary Comparator Ratio (DCR) calculation; design: from tissue; host or cells: human whole peripheral blood (erythrocytes), K2EDTA anticoagulant; conditions: human
T1 sequence (P22303 32-617 isoform P22303-2 limits assumed): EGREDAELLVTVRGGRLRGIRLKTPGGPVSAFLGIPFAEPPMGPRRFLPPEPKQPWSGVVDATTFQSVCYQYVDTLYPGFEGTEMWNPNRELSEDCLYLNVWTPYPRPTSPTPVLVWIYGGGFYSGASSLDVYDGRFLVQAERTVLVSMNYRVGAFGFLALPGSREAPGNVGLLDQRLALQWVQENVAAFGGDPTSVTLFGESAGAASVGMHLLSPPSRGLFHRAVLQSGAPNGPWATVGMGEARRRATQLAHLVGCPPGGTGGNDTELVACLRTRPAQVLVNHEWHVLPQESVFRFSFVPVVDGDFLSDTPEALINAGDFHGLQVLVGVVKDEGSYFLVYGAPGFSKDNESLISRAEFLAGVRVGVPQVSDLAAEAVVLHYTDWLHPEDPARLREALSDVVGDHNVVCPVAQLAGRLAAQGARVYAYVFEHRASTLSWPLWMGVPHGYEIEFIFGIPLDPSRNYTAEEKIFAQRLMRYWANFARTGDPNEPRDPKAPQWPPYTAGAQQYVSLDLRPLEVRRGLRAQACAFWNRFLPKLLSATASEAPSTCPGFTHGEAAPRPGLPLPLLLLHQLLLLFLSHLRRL
Description: The DCR value for an exposure scenario was calculated as the ratio of EARtest and EARcomparator (eq 1). The EARtest is scenario-specific and was defined with the IC50 of the tested organophosphate oxon for in vitro erythrocyte AChE inhibition and the PBK model-simulated CBmaxoxon at the defined exposure level (eq 2).
The DCR-based predictions were evaluated by comparing the obtained DCR results with actual knowledge of the adverse health effects reported for the respective exposure scenarios. Adverse effects cannot be ruled out for human exposure scenarios with a DCR result greater than 1, while exposure scenarios with a DCR result less than or equal to 1 are considered to raise no safety concern.[18]−[20] Once validated as an adequate predicting tool, the DCR approach was applied for evaluating the safety of exposure scenarios, for which no information on the resulting toxic outcomes was reported at the defined dose levels for humans.

erythrocyte AChE [3] = molecular target: T1, erythrocyte AChE; conditions: cited from earlier work; for reported or expected adverse health outcome: human, ref Table S2
[4] = 214 mg/kg BW (15 g) acute oral, person, ref Klemmer et al. 1978
[5] = 357 mg/kg BW (25 g) acute oral, person seven, ref Klemmer et al. 1978
[6] = 357 mg/kg BW (25 g) acute oral, person six, ref Klemmer et al. 1978
[7] = 643 mg/kg BW (45 g) acute oral, person, ref Klemmer et al. 1978

SMILES: CCOP(=S)(OCC)Oc1cc(C)nc(C(C)C)n1 [diazinon]
- Oral absorption rate constant [1]: 0.73 h⁻¹
- calculated DCR value (erythrocyte AChE [2]; single oral 0.011 mg/kg BW): 2.1 × 10^–4
- calculated EARtest value (erythrocyte AChE [2]; single oral 0.011 mg/kg BW): 8.3 × 10^–6
- calculated DCR value (erythrocyte AChE [2]; single oral 0.03 mg/kg BW): 5.7 × 10^–4
- calculated EARtest value (erythrocyte AChE [2]; single oral 0.03 mg/kg BW): 2.3 × 10^–5
- calculated DCR value (erythrocyte AChE [2]; single oral 0.12 mg/kg BW): 2.3 × 10^–3
- calculated EARtest value (erythrocyte AChE [2]; single oral 0.12 mg/kg BW): 9.1 × 10^–5
- calculated DCR value (erythrocyte AChE [2]; single oral 0.20 mg/kg BW): 3.8 × 10^–3
- calculated EARtest value (erythrocyte AChE [2]; single oral 0.20 mg/kg BW): 1.5 × 10^–4
- calculated EARtest value (erythrocyte AChE [2]; single oral 0.21 mg/kg BW): 1.6 × 10^–4
- calculated EARtest value (erythrocyte AChE [2]; single oral 0.30 mg/kg BW): 2.3 × 10^–4
- calculated DCR value (erythrocyte AChE [2]; single oral 200 mg/kg BW): 2.1
- calculated EARtest value (erythrocyte AChE [2]; single oral 200 mg/kg BW): 0.084
- calculated DCR value (erythrocyte AChE [2]; single oral 214 mg/kg BW): 2.2
- calculated EARtest value (erythrocyte AChE [2]; single oral 214 mg/kg BW): 0.085
- calculated DCR value (erythrocyte AChE [2]; single oral 293 mg/kg BW): 2.3
- calculated EARtest value (erythrocyte AChE [2]; single oral 293 mg/kg BW): 0.089
- calculated DCR value (erythrocyte AChE [2]; single oral 323 mg/kg BW): 2.3
- calculated EARtest value (erythrocyte AChE [2]; single oral 323 mg/kg BW): 0.090
- calculated DCR value (erythrocyte AChE [2]; single oral 357 mg/kg BW): 2.3
- calculated EARtest value (erythrocyte AChE [2]; single oral 357 mg/kg BW): 0.091
- calculated DCR value (erythrocyte AChE [2]; single oral 429 mg/kg BW): 2.3
- calculated EARtest value (erythrocyte AChE [2]; single oral 429 mg/kg BW): 0.093
- calculated DCR value (erythrocyte AChE [2]; single oral 643 mg/kg BW): 2.4
- calculated EARtest value (erythrocyte AChE [2]; single oral 643 mg/kg BW): 0.095
- Reported erythrocyte AChE activity/inhibition (erythrocyte AChE [3]; 0.011 mg/kg BW single oral, 4 male and 1 female volunteers, ref Garfitt et al. 2002): No erythrocyte AChE inhibition
- Reported erythrocyte AChE activity/inhibition (erythrocyte AChE [3]; 0.03 mg/kg BW single oral, 7 male volunteers, ref APVMA. 2011, US EPA. 2001 (original data of Boyeson. 2000)): No erythrocyte AChE inhibition
- Reported erythrocyte AChE activity/inhibition (erythrocyte AChE [3]; 0.12 mg/kg BW single oral, 7 male volunteers, ref APVMA. 2011, US EPA. 2001 (original data of Boyeson. 2000)): No erythrocyte AChE inhibition
- Reported erythrocyte AChE activity/inhibition (erythrocyte AChE [3]; 0.20 mg/kg BW single oral, 7 male volunteers, ref APVMA. 2011, US EPA. 2001 (original data of Boyeson. 2000)): No erythrocyte AChE inhibition
- Reported erythrocyte AChE activity/inhibition (erythrocyte AChE [3]; 0.21 mg/kg BW single oral, 7 male volunteers, APVMA: significant inhibition, US EPA: limited, ref APVMA. 2011, US EPA. 2001 (original data of Boyeson. 2000)): Conflicting opinions
- Reported concomitant effects (signs and symptoms) (erythrocyte AChE [3]; 0.21 mg/kg BW single oral, 7 male volunteers, might occur, ref APVMA. 2011, US EPA. 2001 (original data of Boyeson. 2000)): Mild clinical signs or symptoms
- Reported erythrocyte AChE activity/inhibition (erythrocyte AChE [3]; 0.30 mg/kg BW single oral, 1 volunteer, APVMA: inhibition greater than at 0.20 mg/kg BW, US EPA: no inhibition, ref APVMA. 2011, US EPA. 2001 (original data of Boyeson. 2000)): Conflicting opinions
- Reported concomitant effects (signs and symptoms) (erythrocyte AChE [3]; 0.30 mg/kg BW single oral, 1 volunteer, might occur, ref APVMA. 2011, US EPA. 2001 (original data of Boyeson. 2000)): Mild clinical signs or symptoms
- Reported concomitant effects (signs and symptoms) (erythrocyte AChE [3]; 200 mg/kg BW (14 - 57 g) acute oral, 14 males and 11 females, ref APVMA. 2011 (original data of Mutalik et al. 1962)): Toxic symptoms occurred
- Reported concomitant effects (signs and symptoms) (erythrocyte AChE [3]; [4]): toxic symptoms occurred
- Reported erythrocyte AChE activity/inhibition (erythrocyte AChE [3]; [4]): Significantly decreased
- Reported concomitant effects (signs and symptoms) (erythrocyte AChE [3]; 293 mg/kg BW (22 g) acute oral, person, ref Poklis et al. 1980): Died
- Reported concomitant effects (signs and symptoms) (erythrocyte AChE [3]; 323 mg/kg BW (22.6 g) acute oral, person, ref APVMA. 2011 (original data of Banerjee. 1967)): Toxic symptoms occurred
- Reported concomitant effects (signs and symptoms) (erythrocyte AChE [3]; [5]): toxic symptoms occurred
- Reported erythrocyte AChE activity/inhibition (erythrocyte AChE [3]; [5]): Significantly decreased
- Reported concomitant effects (signs and symptoms) (erythrocyte AChE [3]; [6]): toxic symptoms occurred
- Reported erythrocyte AChE activity/inhibition (erythrocyte AChE [3]; [6]): Significantly decreased
- Reported concomitant effects (signs and symptoms) (erythrocyte AChE [3]; 429 mg/kg BW (30 g) acute oral, person, ref Martinez-Chuecos et al. 1992): Toxic symptoms occurred
- Reported concomitant effects (signs and symptoms) (erythrocyte AChE [3]; [7]): toxic symptoms occurred
- Reported erythrocyte AChE activity/inhibition (erythrocyte AChE [3]; [7]): Significantly decreased
- reported or expected adverse health outcome (erythrocyte AChE [3]; single oral 0.011 mg/kg BW, 0.011 mg/kg): negative
- reported or expected adverse health outcome (erythrocyte AChE [3]; single oral 0.011 mg/kg BW, listed as Diazinon, 0.011 mg/kg): No
- reported or expected adverse health outcome (erythrocyte AChE [3]; single oral 0.03 mg/kg BW, 0.03 mg/kg): negative
- reported or expected adverse health outcome (erythrocyte AChE [3]; single oral 0.03 mg/kg BW, listed as Diazinon, 0.03 mg/kg): No
- reported or expected adverse health outcome (erythrocyte AChE [3]; single oral 0.12 mg/kg BW, 0.12 mg/kg): negative
- reported or expected adverse health outcome (erythrocyte AChE [3]; single oral 0.12 mg/kg BW, listed as Diazinon, 0.12 mg/kg): No
- reported or expected adverse health outcome (erythrocyte AChE [3]; single oral 0.20 mg/kg BW, 0.2 mg/kg): negative
- reported or expected adverse health outcome (erythrocyte AChE [3]; single oral 0.20 mg/kg BW, listed as Diazinon, 0.2 mg/kg): No
- reported or expected adverse health outcome (erythrocyte AChE [3]; single oral 200 mg/kg BW, 200 mg/kg): positive
- reported or expected adverse health outcome (erythrocyte AChE [3]; single oral 200 mg/kg BW, listed as Diazinon, 200 mg/kg): Yes
- reported or expected adverse health outcome (erythrocyte AChE [3]; single oral 214 mg/kg BW, 214 mg/kg): positive
- reported or expected adverse health outcome (erythrocyte AChE [3]; single oral 214 mg/kg BW, listed as Diazinon, 214 mg/kg): Yes
- reported or expected adverse health outcome (erythrocyte AChE [3]; single oral 293 mg/kg BW, 293 mg/kg): positive
- reported or expected adverse health outcome (erythrocyte AChE [3]; single oral 293 mg/kg BW, listed as Diazinon, 293 mg/kg): Yes
- reported or expected adverse health outcome (erythrocyte AChE [3]; single oral 323 mg/kg BW, 323 mg/kg): positive
- reported or expected adverse health outcome (erythrocyte AChE [3]; single oral 323 mg/kg BW, listed as Diazinon, 323 mg/kg): Yes
- reported or expected adverse health outcome (erythrocyte AChE [3]; single oral 357 mg/kg BW, 357 mg/kg): positive
- reported or expected adverse health outcome (erythrocyte AChE [3]; single oral 357 mg/kg BW, listed as Diazinon, 357 mg/kg): Yes
- reported or expected adverse health outcome (erythrocyte AChE [3]; single oral 429 mg/kg BW, 429 mg/kg): positive
- reported or expected adverse health outcome (erythrocyte AChE [3]; single oral 429 mg/kg BW, listed as Diazinon, 429 mg/kg): Yes
- reported or expected adverse health outcome (erythrocyte AChE [3]; single oral 643 mg/kg BW, 643 mg/kg): positive
- reported or expected adverse health outcome (erythrocyte AChE [3]; single oral 643 mg/kg BW, listed as Diazinon, 643 mg/kg): Yes
